From publication PMC7998731, “Pharmacokinetic Characterization of Supinoxin and Its Physiologically Based Pharmacokinetic Modeling in Rats” (Pharmaceutics, 2021)
Like-named read-outs stand apart in the source and are kept apart here.

Legend:
[1] = In vivo pharmacokinetic study, intravenous administration to rats; details: rat, plasma; for concentration at 0.083 h / concentration at 0.25 h / concentration at 0.5 h / concentration at 1 h / concentration at 3 h / concentration at 7 h / concentration at 10 h / concentration at 24 h: fasted male SD rats; for concentration at 24 h: BQL treated as 0; for AUC(0-inf) / AUC(0-t) / MRT / clearance / half-life / Vd: male
Experimental: (§1) Male Sprague Dawley (SD) rats, 6–7 weeks old, were purchased from Orient Bio Inc. (Seongnam-si, Korea) and were used in all in vivo studies. The animals were maintained at a temperature of 20–26 °C with a 12 h light/dark cycle and a relative humidity of 40–60%. The experimental protocols involving the animals used in this study were reviewed by the Animal Care and Use Committee of Chungnam National University (CNU-00576, Daejeon, Korea; approval date: 13 March 2015).
(§2) Supinoxin was dissolved in a vehicle (10% DMSO, 10% Tween 80, 40% PEG 400, and 40% saline). In single doses, the administration routes involved an intravenous bolus via the tail vein (n = 4–5) and an oral gavage dose (n = 4–5). The dosing volume was 2 mL per kg body weight, and the dosing range was 0.5, 1, and 5 mg/kg. Blood samples (200 µL) were collected from the jugular vein at 0.083 (intravenous only), 0.25, 0.5, 1, 3, 7, 10, and 24 h after dosing, using a heparinized syringe to ensure anticoagulation. During blood sampling, rats were placed in a restrainer (Nagai-CFS-1S; NMS, Tokyo, Japan). For the separation of plasma fractions, all blood samples were centrifuged at 17,600× g for 5 min. The samples were stored at −20 °C until analysis. When obtaining tissue concentrations to calculate the tissue-to-plasma partition ratio was necessary, samples of nine tissues (i.e., adipose, heart, muscle, kidney, brain, liver, spleen, gut, and lung) were collected at 0.33, 1, 3, 7, and 24 h after 5 mg/kg intravenous administration of supinoxin (n = 3).
(§3) The peak concentration (Cmax) and the time to reach Cmax (Tmax) were obtained directly from individual plasma concentration–time profiles. Linear trapezoidal rule was used to calculate the areas under the plasma concentration–time curve (AUC) and the first moment curve (AUMC), while the terminal half-life (T1/2) was calculated using 0.693/λ, where λ represents the slope of the log-transformed concentration–time profiles of the terminal phase. The systemic clearance (CL), mean residence time (MRT), and the volume of the distribution at the steady state (Vss) were calculated as follows: dose/AUC, AUMC/AUC, and MRT·CL, respectively. To calculate the absolute oral bioavailability (F) we divided the AUC obtained following oral administration by that obtained following intravenous administration of the respective dose.
(§4) To determine supinoxin concentrations in plasma, feces, and urine, we used a previously reported LC–MS/MS assay using DGG-200064 as an internal standard (IS). Briefly, an aliquot (50 μL) of IS solution (concentration 100 ng/mL) was added to 50 μL of plasma, feces, or urine sample, following which 400 μL of acetonitrile containing 0.1% formic acid was added. After vigorous vortexing for 10 min, the extract was centrifuged at 17,600 rpm for 10 min at 4 °C, and the supernatant was placed in an autosampler vial. An aliquot of 5 µL was then injected into the analytical column for chromatographic separation; the analytical system consisted of a 1200 series HPLC system (Applied Biosystems, Foster City, CA, USA) equipped with a turbo-electrospray interface in positive ionization mode.

[2] = In vivo pharmacokinetic study, oral administration to rats; details: Sprague-Dawley, rat, plasma; for concentration at 0.25 h / concentration at 0.5 h / concentration at 1 h / concentration at 3 h / concentration at 7 h / concentration at 10 h / concentration at 24 h: fasted male SD rats; for concentration at 24 h: BQL treated as 0; for AUC(0-inf) / AUC(0-t) / Cmax / MRT / Tmax / half-life / bioavailability: male, rats, oral
Experimental: as §1, §2, §3, §4

[3] = Sprague-Dawley, intravenous 0.5 mg/kg
[4] = Sprague-Dawley, intravenous 5 mg/kg
[5] = Sprague Dawley, rats, intravenous, 0.5 mg/kg
[6] = Sprague Dawley, rats, intravenous, 5 mg/kg

SMILES: COc1cc(OC)cc(N2CCN(C(=O)Nc3nc4cc(F)ccc4nc3OC)CC2)c1 [supinoxin, 1-(3,5-Dimethoxyphenyl)-4-[(6-Fluoro-2-Methoxyquinoxalin-3-yl) Aminocarbonyl] Piperazine]
- concentration at 0.083 h [1, 3]: 313 ng/mL
- concentration at 0.25 h [1, 3]: 255 ng/mL
- concentration at 0.5 h [1, 3]: 206 ng/mL
- concentration at 1 h [1, 3]: 140 ng/mL
- concentration at 3 h [1, 3]: 79.3 ng/mL
- concentration at 7 h [1, 3]: 20.8 ng/mL
- concentration at 10 h [1, 3]: 8.2 ng/mL
- concentration at 24 h [1, 3]: 0.3 ng/mL
- concentration at 0.083 h [1, 4]: 2380 ng/mL
- concentration at 0.25 h [1, 4]: 1640 ng/mL
- concentration at 0.5 h [1, 4]: 1310 ng/mL
- concentration at 1 h [1, 4]: 907 ng/mL
- concentration at 3 h [1, 4]: 600 ng/mL
- concentration at 7 h [1, 4]: 234 ng/mL
- concentration at 10 h [1, 4]: 130 ng/mL
- concentration at 24 h [1, 4]: 5.8 ng/mL
- AUC(0-inf) [1, 5]: 727 ± 177 ng·h/mL
- AUC(0-t) [1, 5]: 715 ± 180 ng·h/mL
- MRT [1, 5]: 2.92 ± 0.65 h
- clearance ([1]; Sprague Dawley, rats, intravenous, 0.5 mg/kg, read-out: CL (converted)): 11.9 mL/min/kg
- half-life ([1]; Sprague Dawley, rats, intravenous, 0.5 mg/kg, read-out: T1/2 (converted)): 2.54 ± 0.83 h
- AUC(0-inf) [1, 6]: 6130 ± 1750 ng·h/mL
- AUC(0-t) [1, 6]: 6090 ± 1760 ng·h/mL
- MRT [1, 6]: 4.07 ± 1.37 h
- clearance ([1]; Sprague Dawley, rats, intravenous, 5 mg/kg, read-out: CL (converted)): 14.4 mL/min/kg
- half-life ([1]; Sprague Dawley, rats, intravenous, 5 mg/kg, read-out: T1/2 (converted)): 2.8 ± 0.71 h
- clearance ([1]; Sprague-Dawley, PBPK input parameter, Determined, from intravenous administration study, read-out: In vivo clearance (CLiv)): 3.16 mL/min
- Vd ([1]; Sprague-Dawley, rats, intravenous, 0.5 mg/kg, read-out: Vss): 2.11 ± 0.803 L/kg
- Vd ([1]; Sprague-Dawley, rats, intravenous, 5 mg/kg, read-out: Vss): 3.5 ± 1.45 L/kg
- Vd ([1]; Sprague-Dawley, rats, intravenous, range over doses 0.5–5 mg/kg, read-out: steady state volume of distribution): 2.04 to 3.5 L/kg
- clearance ([1]; Sprague-Dawley, rats, intravenous, range over doses 0.5–5 mg/kg, read-out: systemic clearance): 11.5 to 14.4 mL/min/kg
- half-life ([1]; Sprague-Dawley, rats, intravenous, range over doses 0.5–5 mg/kg, read-out: terminal half-life): 2.54 to 2.8 h
- concentration at 0.25 h ([2]; oral 0.5 mg/kg): 51 ng/mL
- concentration at 0.5 h ([2]; oral 0.5 mg/kg): 99.6 ng/mL
- concentration at 1 h ([2]; oral 0.5 mg/kg): 99.6 ng/mL
- concentration at 3 h ([2]; oral 0.5 mg/kg): 58 ng/mL
- concentration at 7 h ([2]; oral 0.5 mg/kg): 13.1 ng/mL
- concentration at 10 h ([2]; oral 0.5 mg/kg): 5 ng/mL
- concentration at 24 h ([2]; oral 0.5 mg/kg): 0 ng/mL
- concentration at 0.25 h ([2]; oral 5 mg/kg): 474 ng/mL
- concentration at 0.5 h ([2]; oral 5 mg/kg): 676 ng/mL
- concentration at 1 h ([2]; oral 5 mg/kg): 800 ng/mL
- concentration at 3 h ([2]; oral 5 mg/kg): 480 ng/mL
- concentration at 7 h ([2]; oral 5 mg/kg): 113 ng/mL
- concentration at 10 h ([2]; oral 5 mg/kg): 40.4 ng/mL
- concentration at 24 h ([2]; oral 5 mg/kg): 0.5 ng/mL
- AUC(0-inf) ([2]; 0.5 mg/kg): 418 ± 133 ng·h/mL
- AUC(0-t) ([2]; 0.5 mg/kg): 402 ± 130 ng·h/mL
- Cmax ([2]; 0.5 mg/kg): 108 ± 36 ng/mL
- MRT ([2]; 0.5 mg/kg): 2.99 ± 0.71 h
- Tmax ([2]; 0.5 mg/kg): 0.8 ± 0.274 h
- half-life ([2]; 0.5 mg/kg): 2 ± 0.5 h
- bioavailability ([2]; 0.5 mg/kg, read-out: F (absolute oral bioavailability)): 57.4 ± 18.3%
- AUC(0-inf) ([2]; 5 mg/kg): 3510 ± 1420 ng·h/mL
- AUC(0-t) ([2]; 5 mg/kg): 3480 ± 1450 ng·h/mL
- Cmax ([2]; 5 mg/kg): 823 ± 340 ng/mL
- MRT ([2]; 5 mg/kg): 3.17 ± 0.36 h
- Tmax ([2]; 5 mg/kg): 0.75 ± 0.289 h
- half-life ([2]; 5 mg/kg): 2.02 ± 0.33 h
- bioavailability ([2]; 5 mg/kg, read-out: F (absolute oral bioavailability)): 57.2 ± 23.1%
- bioavailability ([2]; range over doses 0.5–5 mg/kg, read-out: absolute oral bioavailability): 56.9 to 57.4%
